Reference: patent US12655116B2, “Substituted isophthalic acid diamides” (Bayer Aktiengesellschaft, priority 2020, dated 2026)

Experiments:
ABUTH [1] = experiment: Pre-emergence herbicidal action against ABUTH; assay type: in vivo, Abutilon theophrasti
In short: (§1)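 Seeds sown in sandy loam, soil-covered; compound sprayed on soil surface pre-emergence. Application: WP/EC, 600–800 l/ha, 0.2% wetting agent. Readout: visual % damage at 3 weeks.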

ALOMY [2] = experiment: Pre-emergence herbicidal action against ALOMY; assay type: in vivo, Alopecurus myosuroides; settings: 80 g/ha, pre-emergence, scored visually after 3 weeks vs untreated controls (100% = plants have died, 0% = like control plants)
In short: as §1

AMARE = experiment: Pre-emergence herbicidal action against AMARE; assay type: in vivo, Amaranthus retroflexus
In short: as §1

ECHCG [3] = experiment: Pre-emergence herbicidal action against ECHCG; assay type: in vivo, Echinochloa crus-galli
In short: as §1

MATIN [4] = experiment: Pre-emergence herbicidal action against MATIN; assay type: in vivo, Matricaria inodora
In short: as §1

PHBPU [5] = experiment: Pre-emergence herbicidal action against PHBPU; assay type: in vivo, Pharbitis purpurea; settings: dosage 80 g/ha
In short: as §1

POLCO [6] = experiment: Pre-emergence herbicidal action against POLCO; assay type: in vivo, Polygonum convolvulus; settings: dosage 80 g/ha
In short: as §1

SETVI [7] = experiment: Pre-emergence herbicidal action against SETVI; assay type: in vivo, Setaria viridis
In short: as §1

VERPE [8] = experiment: Pre-emergence herbicidal action against VERPE; assay type: in vivo, Veronica persica
In short: as §1

VIOTR [9] = experiment: Pre-emergence herbicidal action against VIOTR; assay type: in vivo, Viola tricolor
In short: as §1

DIGSA = experiment: Pre-emergence herbicidal action against DIGSA; assay type: in vivo, Digitaria sanguinalis
In short: as §1

ABUTH [10] = experiment: Post-emergence herbicidal action against ABUTH; assay type: in vivo, Abutilon theophrasti; settings: Abutilon theophrasti, 504 h, visual assessment about 3 weeks after treatment vs untreated controls
In short: (§2)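 Percent herbicidal action is rated by eye about 3 weeks after treatment against untreated controls, where 100% means dead plants and 0% means like controls. Plants in sandy loam are sprayed on green parts at the one-leaf stage with aqueous WP or EC preparations at 600 to 800 l/ha plus 0.2% wetting agent.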

ECHCG [11] = experiment: Post-emergence herbicidal action against ECHCG; assay type: in vivo, Echinochloa crus-galli
In short: as §2

MATIN [12] = experiment: Post-emergence herbicidal action against MATIN; assay type: in vivo, Matricaria inodora
In short: as §2

PHBPU [13] = experiment: Post-emergence herbicidal action against PHBPU; assay type: in vivo, Pharbitis purpurea; settings: dosage 20 g/ha
In short: as §2

POLCO [14] = experiment: Post-emergence herbicidal action against POLCO; assay type: in vivo, Polygonum convolvulus; settings: dosage 20 g/ha
Description: Seeds of monocotyledonous and dicotyledonous weed and crop plants are laid out in sandy loam soil in wood-fiber pots, covered with soil and cultivated in a greenhouse under good growth conditions. 2 to 3 weeks after sowing, the test plants are treated at the one-leaf stage. The compounds of the invention, formulated in the form of wettable powders (WP) or as emulsion concentrates (EC), are then sprayed onto the green parts of the plants in the form of an aqueous suspension or emulsion at a water application rate equivalent to 600 to 800 l/ha, with addition of 0.2% wetting agent. After the test plants have been left to stand in the greenhouse under optimal growth conditions for about 3 weeks, the action of the preparations is assessed visually in comparison to untreated controls (herbicidal action in percent (%): 100% activity=the plants have died, 0% activity=like control plants). […] The tables below illustrate, in an illustrative manner, the post-emergence herbicidal action of the compounds of the invention, the herbicidal activity being stated in percent.

SETVI [15] = experiment: Post-emergence herbicidal action against SETVI; assay type: in vivo, Setaria viridis; settings: Setaria viridis, 504 h, dosage 20 g/ha
In short: as §2

VERPE [16] = experiment: Post-emergence herbicidal action against VERPE; assay type: in vivo, Veronica persica
In short: as §2

VIOTR [17] = experiment: Post-emergence herbicidal action against VIOTR; assay type: in vivo, Viola tricolor
In short: as §2

AVEFA = experiment: Pre-emergence herbicidal action against AVEFA; assay type: in vivo, Avena fatua; settings: 80 g/ha, pre-emergence
In short: as §1

ALOMY [18] = experiment: Post-emergence herbicidal action against ALOMY; assay type: in vivo, Alopecurus myosuroides; settings: dosage 20 g/ha, visual assessment about 3 weeks after treatment vs untreated controls
In short: as §2

[19] = Tripleurospermum inodorum, 504 h, dosage 20 g/ha
[20] = 80 g/ha, scored visually after 3 weeks vs untreated controls (100% = plants have died, 0% = like control plants)

COc1c(C(=O)Nc2nnnn2C)ccc(C(F)F)c1C(=O)NC1CC1 [Example 1-74]
pest or weed control at 80 g/ha (ABUTH [1]; Abutilon theophrasti, 504 h, 80 g/ha, scored visually after 3 weeks vs untreated controls (100% = plants have died, 0% = like control plants)): 100%
pest or weed control at 20 g/ha (ABUTH [1]; Abutilon theophrasti, 504 h, dosage 20 g/ha, scored visually after 3 weeks vs untreated controls, 100% = plants have died, 0% = like control plants, read-out: Pre-emergence action against ABUTH (herbicidal activity in percent)): 100%
pest or weed control at 80 g/ha (ALOMY [2]; Alopecurus myosuroides, 504 h): 90%
pest or weed control at 20 g/ha (AMARE; Amaranthus retroflexus, 504 h, 20 g/ha, scored visually after 3 weeks vs untreated controls, 100% = plants have died, 0% = like control plants): 100%
pest or weed control at 80 g/ha (AMARE; Amaranthus retroflexus, 504 h, 80 g/ha, scored visually after 3 weeks vs untreated controls, 100% = plants have died, 0% = like control plants): 100%
pest or weed control at 80 g/ha (ECHCG [3]; Echinochloa crus-galli, 504 h, 80 g/ha): 100%
pest or weed control at 20 g/ha (MATIN [4]; [19]): 100%
pest or weed control at 80 g/ha (MATIN [4]; Tripleurospermum inodorum, 504 h, dosage 80 g/ha): 100%
pest or weed control at 80 g/ha (PHBPU [5]; Ipomoea purpurea, 504 h): 100%
pest or weed control at 80 g/ha (POLCO [6]; Fallopia convolvulus, 504 h): 80%
pest or weed control at 20 g/ha (SETVI [7]; Setaria viridis, 504 h, dosage 20 g/ha): 100%
pest or weed control at 80 g/ha (SETVI [7]; Setaria viridis, 504 h, dosage 80 g/ha): 100%
pest or weed control at 80 g/ha (VERPE [8]; Veronica persica, 504 h, dosage 80 g/ha): 100%
pest or weed control at 20 g/ha (VIOTR [9]; Viola tricolor, 504 h, dosage 20 g/ha): 100%
pest or weed control at 80 g/ha (VIOTR [9]; Viola tricolor, 504 h, dosage 80 g/ha): 100%
pest or weed control at 20 g/ha (DIGSA; Digitaria sanguinalis, 504 h, dosage 20 g/ha): 100%
pest or weed control at 80 g/ha (DIGSA; Digitaria sanguinalis, 504 h, dosage 80 g/ha): 100%
pest or weed control at 5 g/ha (ABUTH [10]; dosage 5 g/ha): 80%
pest or weed control at 20 g/ha (ABUTH [10]; dosage 20 g/ha): 80%
pest or weed control at 5 g/ha (ECHCG [11]; Echinochloa crus-galli, 504 h, dosage 5 g/ha): 80%
pest or weed control at 20 g/ha (ECHCG [11]; Echinochloa crus-galli, 504 h, dosage 20 g/ha): 80%
pest or weed control at 5 g/ha (MATIN [12]; Tripleurospermum inodorum, 504 h, dosage 5 g/ha): 80%
pest or weed control at 20 g/ha (MATIN [12]; [19]): 90%
pest or weed control at 20 g/ha (PHBPU [13]; Ipomoea purpurea, 504 h): 90%
pest or weed control at 20 g/ha (POLCO [14]; Fallopia convolvulus, 504 h): 80%
pest or weed control at 20 g/ha (SETVI [15]): 100%
pest or weed control at 5 g/ha (VERPE [16]; Veronica persica, 504 h, 5 g/ha): 80%
pest or weed control at 20 g/ha (VERPE [16]; Veronica persica, 504 h, 20 g/ha): 90%
pest or weed control at 5 g/ha (VIOTR [17]; Viola tricolor, 504 h, 5 g/ha): 80%
pest or weed control at 20 g/ha (VIOTR [17]; Viola tricolor, 504 h, 20 g/ha): 90%

CC(NC(=O)c1c(Br)ccc(C(=O)Nc2nnnn2C)c1Cl)C1CC1 (centres unmarked) [Example 1-183]
Pre-emergence action against ABUTH (herbicidal activity) (ABUTH [1]; [20]): 100%
Pre-emergence action against ABUTH (herbicidal activity in percent) (ABUTH [1]; dosage 20 g/ha, scored visually after 3 weeks vs untreated controls, 100% = plants have died, 0% = like control plants): 100%
Pre-emergence action against ALOMY (herbicidal activity) (ALOMY [2]): 90%
Pre-emergence action against AMARE in % (AMARE; 20 g/ha, scored visually after 3 weeks vs untreated controls, 100% = plants have died, 0% = like control plants): 100%
Pre-emergence action against AMARE in % (AMARE; [20]): 100%
Pre-emergence action against AVEFA in % (AVEFA): 90%
Pre-emergence action against ECHCG in % (ECHCG [3]; 20 g/ha): 90%
Pre-emergence action against ECHCG in % (ECHCG [3]; 80 g/ha): 100%
Pre-emergence action against MATIN in % (MATIN [4]; dosage 20 g/ha): 90%
Pre-emergence action against MATIN in % (MATIN [4]; dosage 80 g/ha): 100%
Pre-emergence action against PHBPU in % (PHBPU [5]): 90%
Pre-emergence action against POLCO in % (POLCO [6]): 80%
Pre-emergence action against SETVI in % (SETVI [7]; dosage 80 g/ha): 100%
Pre-emergence action against VERPE in % (VERPE [8]; dosage 20 g/ha): 90%
Pre-emergence action against VERPE in % (VERPE [8]; dosage 80 g/ha): 100%
Pre-emergence action against VIOTR in % (VIOTR [9]; dosage 20 g/ha): 100%
Pre-emergence action against VIOTR in % (VIOTR [9]; dosage 80 g/ha): 100%
Pre-emergence action against DIGSA in % (DIGSA; dosage 20 g/ha): 100%
Pre-emergence action against DIGSA in % (DIGSA; dosage 80 g/ha): 100%
Post-emergence action against ALOMY in % (ALOMY [18]): 90%
Post-emergence action against ECHCG in % (ECHCG [11]; dosage 20 g/ha): 100%
Post-emergence action against MATIN in % (MATIN [12]; dosage 5 g/ha): 90%
Post-emergence action against MATIN in % (MATIN [12]; dosage 20 g/ha): 90%
Post-emergence action against PHBPU in % (PHBPU [13]): 80%
Post-emergence action against POLCO in % (POLCO [14]): 100%
Post-emergence action against VERPE in % (VERPE [16]; 5 g/ha): 80%
Post-emergence action against VERPE in % (VERPE [16]; 20 g/ha): 90%
Post-emergence action against VIOTR in % (VIOTR [17]; 5 g/ha): 90%
Post-emergence action against VIOTR in % (VIOTR [17]; 20 g/ha): 90%
